Read-outs that look alike come from different tables or passages of the source.
Molecular target: Flpin-293-PDE4B2 cells (Homo sapiens, UniProt Q07343)
Assay: cell-based
[1] = read-out: Cell Inhibition % @1 nM, 1 nM, Flpin-293-PDE4B2 cells
[2] = read-out: Cell Inhibition % @10 nM, 10 nM, Flpin-293-PDE4B2 cells
[3] = read-out: Cell Inhibition % @100 nM, 100 nM, Flpin-293-PDE4B2 cells

Chain of Flpin-293-PDE4B2 cells (Q07343 1-564 isoform Q07343-2): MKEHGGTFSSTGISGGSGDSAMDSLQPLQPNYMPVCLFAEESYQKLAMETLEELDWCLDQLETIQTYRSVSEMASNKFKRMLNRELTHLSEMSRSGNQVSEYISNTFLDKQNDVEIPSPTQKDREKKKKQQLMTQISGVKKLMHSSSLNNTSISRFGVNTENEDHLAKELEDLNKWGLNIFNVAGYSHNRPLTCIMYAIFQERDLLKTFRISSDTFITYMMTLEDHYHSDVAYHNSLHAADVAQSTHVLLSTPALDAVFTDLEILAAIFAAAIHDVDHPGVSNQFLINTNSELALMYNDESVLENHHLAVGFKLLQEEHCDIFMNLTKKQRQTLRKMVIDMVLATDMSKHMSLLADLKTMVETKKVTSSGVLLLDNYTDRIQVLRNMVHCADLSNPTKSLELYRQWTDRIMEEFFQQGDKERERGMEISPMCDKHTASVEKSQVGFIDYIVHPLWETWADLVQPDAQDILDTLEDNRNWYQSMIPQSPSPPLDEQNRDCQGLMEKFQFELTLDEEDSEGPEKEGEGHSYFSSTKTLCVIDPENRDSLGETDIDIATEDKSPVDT

| inhibition at 0.001 µM [1] [%] | inhibition at 0.01 µM [2] [%] | inhibition at 0.1 µM [3] [%] | Compound | inhibition at 0.001 µM (read-out: Cell Inhibition % @1 nM) [%] | inhibition at 0.01 µM (read-out: Cell Inhibition % @10 nM) [%] | inhibition at 0.1 µM (read-out: Cell Inhibition % @100 nM) [%] |
| --- | --- | --- | --- | --- | --- | --- |
| 19 | 76.1 | 100 | COc1ccc2c(c1)OC[C@H]1CN(c3nc4c(c(NC5(CO)CCC5)n3)[S+]([O-])CC4)CC[C@H]21 (stereo partly drawn) [Compound 110] |  |  |  |
| 3.77 | 46 | 96.6 | [O-][S+]1CCc2nc(N3CCc4cc(N5CC[C@H](O)C5)ccc4C3)nc(NC3(CO)CCC3)c21 (stereo partly drawn) [Compound 172] |  |  |  |
| 7.53 | 42.5 | 93.5 | Cn1nc(Cl)c2c3c(cnc21)CN(c1nc2c(c(NC4(CO)CCC4)n1)[S+]([O-])CC2)CC3 (stereo not drawn) [Compound 105] |  |  |  |
| 11.3 | 71.5 | 99.7 | C[C@H]1c2ccc(N3CCCC3)cc2CCN1c1nc2c(c(NC3(CO)CCCC3)n1)[S+]([O-])CC2 (stereo partly drawn) [Compound 221] |  |  |  |
| 3.3 | 29.6 | 86.8 | C[C@H]1c2ccc(Br)cc2CCN1c1nc2c(c(NC3(CO)CCC3)n1)[S+]([O-])CC2 (stereo partly drawn) [Compound 123] |  |  |  |
|  |  |  | [O-][S+]1CCc2nc(N3CCc4cc(Cl)ncc4C3)nc(NC3(CO)CCC3)c21 (stereo not drawn) [Compound 78] | 2.2 | 32.1 | 86.3 |
|  | 18.8 | 79.2 | [O-][S+]1CCc2nc(N3CCc4cccc(Cl)c4C3)nc(NC3(CO)CCC3)c21 (stereo not drawn) [Compound 21] |  |  |  |
| 8.67 | 32.2 | 94.4 | COC[C@@H]1CCCN1c1ccc2c(c1)CCN(c1nc3c(c(NC4(CO)CCC4)n1)[S+]([O-])CC3)C2 (stereo partly drawn) [Compound 147] |  |  |  |
| 2.83 | 38.9 | 95.4 | [O-][S+]1CCc2nc(N3CCc4c(c(NCCO)nc5cc(Cl)ccc45)C3)nc(NC3(CO)CCC3)c21 (stereo not drawn) [Compound 103] |  |  |  |
| 2.17 | 16.9 | 73.4 | [O-][S+]1CCc2nc(N3CC[C@H]4c5ccc(Cl)cc5OC[C@H]4C3)nc(NC3(CO)CCC3)c21 (stereo partly drawn) [Compound 116] |  |  |  |
| 1.99 | 11.2 | 59.4 | [O-][S+]1CCc2nc(N3CCc4cnc(Cl)cc4C3)nc(NC3(CO)CCC3)c21 (stereo not drawn) [Compound 79] |  |  |  |
| 14.8 | 85.1 | 101 | COC[C@H]1CCCN1c1ccc2c(c1)CCN(c1nc3c(c(NC4(CO)CCC4)n1)[S+]([O-])CC3)C2 (stereo partly drawn) [Compound 146] |  |  |  |
| 8.69 | 63.1 | 97.8 | CN1CCN(c2ccc3c(c2)CCN(c2nc4c(c(NC5(CO)CCC5)n2)[S+]([O-])CC4)C3)C1=O (stereo not drawn) [Compound 86] |  |  |  |
|  | 81.8 | 99.5 | [O-][S+]1CCc2nc(N3CCc4cc(C(F)(F)F)ccc4C3)nc(NC3(CO)CCC3)c21 (stereo not drawn) [Compound 52] |  |  |  |
| 0.41 | 21.2 | 67.5 | [O-][n+]1cc2c(c3ccc(Cl)cc31)CCN(c1nc3c(c(NC4(CO)CCC4)n1)[S+]([O-])CC3)C2 (stereo not drawn) [Compound 106] |  |  |  |
| 10.7 | 44.4 | 98.9 | C[C@H]1c2ccc(N3CCC(F)(F)C3)cc2CCN1c1nc2c(c(NC3(CO)CCC3)n1)[S+]([O-])CC2 (stereo partly drawn) [Compound 224] |  |  |  |
| 41.5 | 96.2 | 101 | CC(=O)N1CC[C@H](Nc2nc(N3CCc4cc(N5CCCC5)ccc4[C@@H]3C)nc3c2[S+]([O-])CC3)C1 (stereo partly drawn) [Compound 222] |  |  |  |
|  | 42.6 | 85.8 | [O-][S+]1CCc2nc(N3Cc4ccc(Br)cc4C3)nc(NC3(CO)CCC3)c21 (stereo not drawn) [Compound 59] |  |  |  |
| 4.18 | 43.7 | 96.5 | COc1nc2c(c3ccc(Cl)cc13)CCN(c1nc3c(c(NC4(CO)CCC4)n1)[S+]([O-])CC3)C2 (stereo not drawn) [Compound 99] |  |  |  |

— patent US20260285880A1, “SUBSTITUTED DIHYDROTHIENOPYRIMIDINE COMPOUND, PREPARATION METHOD THEREFOR, AND USE THEREOF” (SHANGHAI YIDI BIOTECHNOLOGY CO., LTD., priority 2023, published 2026)
